53 compounds from patent publication US9902728B2, “Pyrrolo and pyrazolopyrimidines as ubiquitin-specific protease 7 inhibitors” (Forma Therapeutics, Inc., priority 2014, dated 2018) can be followed below.

Each structure is given as a SMILES string. Where only a bound is given, the exact number is not on record here.

For the first experiment, the target named is T1, USP7 (Homo sapiens, UniProt Q93009).
T1 construct: USP7, construct USP7 (208-1102) 6*His, Viva Biotech; 6xHis (C); purchased Viva Biotech
T1 sequence (Q93009 208-1102): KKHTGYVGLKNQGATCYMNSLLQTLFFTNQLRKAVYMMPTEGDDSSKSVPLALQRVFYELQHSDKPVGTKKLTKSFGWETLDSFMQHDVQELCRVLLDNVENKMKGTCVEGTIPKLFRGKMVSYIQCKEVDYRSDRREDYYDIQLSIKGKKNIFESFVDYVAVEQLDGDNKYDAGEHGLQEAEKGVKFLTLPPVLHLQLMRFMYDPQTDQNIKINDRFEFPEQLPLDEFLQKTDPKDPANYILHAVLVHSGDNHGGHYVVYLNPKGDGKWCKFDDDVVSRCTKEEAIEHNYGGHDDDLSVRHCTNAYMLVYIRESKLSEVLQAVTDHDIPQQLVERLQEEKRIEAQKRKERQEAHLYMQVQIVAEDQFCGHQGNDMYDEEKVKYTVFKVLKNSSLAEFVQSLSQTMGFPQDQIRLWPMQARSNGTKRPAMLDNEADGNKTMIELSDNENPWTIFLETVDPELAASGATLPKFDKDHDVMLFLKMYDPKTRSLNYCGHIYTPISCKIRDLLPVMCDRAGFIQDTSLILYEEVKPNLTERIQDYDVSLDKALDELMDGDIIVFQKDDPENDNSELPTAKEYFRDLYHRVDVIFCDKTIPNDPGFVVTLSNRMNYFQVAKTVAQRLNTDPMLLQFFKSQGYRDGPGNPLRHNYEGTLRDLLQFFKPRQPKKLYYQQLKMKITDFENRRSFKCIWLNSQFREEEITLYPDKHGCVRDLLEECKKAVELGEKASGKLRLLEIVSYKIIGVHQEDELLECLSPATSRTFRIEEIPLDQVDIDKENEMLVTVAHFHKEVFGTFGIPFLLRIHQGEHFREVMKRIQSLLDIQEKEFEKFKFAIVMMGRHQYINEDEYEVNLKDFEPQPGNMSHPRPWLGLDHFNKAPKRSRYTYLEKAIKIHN
Description: USP7 Assay A (Ubitquin-Rhodamine 110 Assay). The class given is biochemical. The settings on record: USP7 activity in USP7 assay A and B (table does not say which assay per compound); read-out: USP7_IC50. The method, then: Each assay was performed in a final volume of 15 μL in assay buffer containing 20 mM Tris-HCl (pH 8.0, (1M Tris-HCl, pH 8.0 solution; Corning 46-031-CM)), 1 mM GSH (L-Glutathione reduced; Sigma #G4251), 0.03% BGG ([…], Sigma, #G7516-25G), and 0.01% Triton X-100 (Sigma, #T9284-10L). […] 5 μL of 2× enzyme was added to assay plates (pre-stamped with compound) preincubated with USP7 for 30 minutes and then 5 μL of 2×Ub-Rh110 was added to assay plates. […] Fluorescence was read on the Envision (Excitation at 485 nm and Emission at 535 nm; Perkin Elmer) or on the PheraSTAR (Excitation at 485 nm and Emission at 535 nm; BMG Labtech).
Data from USP7 Assays A and B were reported as percent inhibition (inh) compared with control wells based on the following equation: % inh=1−((FLU−AveLow)/(AveHigh−AveLow)) where FLU=measured Fluorescence (See Tables 6-10). AveLow=average Fluorescence of no enzyme control (n=16). AveHigh=average Fluorescence of DMSO control (n=16). […] Data is fitted using the Levenburg Marquardt algorithm.
As to `Cn1ccc(OC2CCC(C(=O)N3CCC(O)(Cn4cnc5c(cnn5-c5ccc(F)cc5)c4=O)CC3)CC2)n1` (centres unmarked) [Compound I-753], the IC50 fell in the range of 200 to 1000 nM.

As to `Cc1nc(-c2ccc(-n3ncc4c(=O)n(CC5(O)CCN(C(=O)c6ccc(F)cc6)CC5)cnc43)cc2)c[nH]1` [Compound I-983], the IC50 was in the range of 1000 to 10000 nM.

Turning to `O=C(C1CC(Nc2ccc(F)cn2)C1)N1CCC(O)(Cn2cnc3c(cnn3-c3ccc(F)cc3)c2=O)CC1` (centres unmarked) [Compound I-1033], the IC50 lay within 1000 to 10000 nM.

As for `Cn1ccc2c(=O)n(CC3(O)CCN(C(=O)CC(C(F)F)n4ccc(F)n4)CC3)cnc21` (single isomer, unassigned) [Compound I-1695], the IC50 was below 200 nM.

For `Cn1ncc2c(=O)n(CC3(O)CCN(C(=O)CC(C(F)F)n4ccc(F)n4)CC3)cnc21` (single isomer, unassigned) [Compound I-1698], the IC50 is above 10000 nM.

`O=C(c1cnc(C2CC2)o1)N1CCC(O)(Cn2cnc3c(cnn3-c3ccc(C4CC4)cc3)c2=O)CC1` [Compound I-629]: the IC50 is below 200 nM.

Turning to `O=C(NC1CCC(C(=O)N2CCC(O)(Cn3cnc4c(cnn4-c4ccc(F)cc4)c3=O)CC2)CC1)C1CC1` (centres unmarked) [Compound I-1075], the IC50 fell in the range of 1000 to 10000 nM.

In the case of `CC1(C(=O)N2CCC(O)(Cn3cnc4c(cnn4-c4ccc(N5CCC(F)CC5)cc4)c3=O)CC2)CC1` [Compound I-1445], the IC50 is 200 to 1000 nM.

Take `Cn1cc(-c2ccc(-n3ncc4c(=O)n(CC5(O)CCN(C(=O)C6(C)CC6)CC5)cnc43)cc2)cn1` [Compound I-775]: the IC50 fell in the range of 200 to 1000 nM.

With `Cc1cnn(-c2ccc(-n3ncc4c(=O)n(CC5(O)CCN(C(=O)c6ccc(F)cc6)CC5)cnc43)cc2)c1` [Compound I-1623], the IC50 was 1000 to 10000 nM.

As for `Cc1ccnc(-c2ccc(-n3ncc4c(=O)n(CC5(O)CCN(C(=O)C6CC6)CC5)cnc43)cc2)c1` [Compound I-1725], the IC50 was 1000 to 10000 nM.

Take `CN1CCC2(CC1)CCN(c1ccc(-n3ncc4c(=O)n(CC5(O)CCN(C(=O)c6ccc(F)cc6)CC5)cnc43)cc1)CC2` [Compound I-1621]: the IC50 is below 200 nM.

With `CC1(C(=O)N2CCC(O)(Cn3cnc4c(cnn4-c4cccc(N5CC(N6CCOCC6)C5)c4)c3=O)CC2)CC1` [Compound I-1637], the IC50 is 200 to 1000 nM.

Consider `O=C(C1CCC(Nc2cccnc2F)CC1)N1CCC(O)(Cn2cnc3c(cnn3-c3ccccc3)c2=O)CC1` (single isomer, unassigned) [Compounds I-1039], for which the IC50 was in the range of 200 to 1000 nM.

On to `Cc1cnn(-c2ccc(-n3ncc4c(=O)n(CC5(O)CCN(C(=O)c6cnc(C7CC7)o6)CC5)cnc43)cc2)c1` [Compound I-779], for which the IC50 is below 200 nM.

With `O=C(C1CCC(n2cccn2)CC1)N1CCC(O)(Cn2cnc3c(cnn3-c3ccc(F)cc3)c2=O)CC1` (centres unmarked) [Compound I-549], the IC50 was 1000 to 10000 nM.

Take `CC1(C(=O)N2CCC(O)(Cn3cnc4c(cnn4-c4ccc(-c5cnn(C6CCOCC6)c5)cc4)c3=O)CC2)CCC1` [Compound I-1719]: the IC50 was below 200 nM.

As to `Cc1cnn(-c2ccc(-n3ncc4c(=O)n(CC5(O)CCN(C(=O)c6cnc(C)o6)CC5)cnc43)cc2)c1` [Compound I-488], the IC50 is below 200 nM.

For the compound `CC1(C(=O)N2CCC(O)(Cn3cnc4c(cnn4-c4ccc(N5CCC(F)(F)CC5)cc4)c3=O)CC2)CC1` [Compound I-1728], the IC50 was 200 to 1000 nM.

With `O=C(c1ccc(-n2cnnn2)cc1)N1CCC(O)(Cn2cnc3c(cnn3-c3ccc(Cl)cc3)c2=O)CC1` [Compound I-1087], the IC50 fell in the range of 200 to 1000 nM.

As for `C[C@@H]1CN(c2ccc(-n3ncc4c(=O)n(CC5(O)CCN(C(=O)C6(C)CC6)CC5)cnc43)cc2)CCN1C` [Compound I-1640], the IC50 is below 200 nM.

`O=C(C[C@@H](C(F)F)n1ccc(F)n1)N1CCC(O)(Cn2cnc3c(ccn3-c3ccc(F)cc3)c2=O)CC1` [Compound I-1126]: the IC50 was below 200 nM.

As for `CC1(C(=O)N2CCC(O)(Cn3cnc4c(cnn4-c4cccc(N5CCC(C6COC6)CC5)c4)c3=O)CC2)CC1` [Compound I-1691], the IC50 fell in the range of 200 to 1000 nM.

Take `CC1(C(=O)N2CCC(O)(Cn3cnc4c(cnn4-c4ccc(-n5cc(C(F)(F)F)cn5)cc4)c3=O)CC2)CC1` [Compound I-1043]: the IC50 is 200 to 1000 nM.

On to `CC1(C(=O)N2CCC(O)(Cn3cnc4c(cnn4-c4ccc(N5CCC(C6COC6)CC5)cc4)c3=O)CC2)CC1` [Compound I-1642], for which the IC50 lay in the range of 200 to 1000 nM.

The same experiment, now with this note: USP7 assay A and B (table does not say which assay per compound); Ubiquitin-Rhodamine 110 substrate; read-out: USP7_IC50.
`C[C@H](CC(=O)N1CCC(O)(Cn2cnc3c(cnn3C)c2=O)CC1)c1ccccc1` [Compound I-57]: the IC50 was in the range of 200 to 1000 nM.

The same experiment, now with this note: USP7 assay A and B (table does not say which assay per compound); read-out: USP7_IC50.
Turning to `CN(C)C(=O)N1CCC(O)(Cn2cnc3c(cnn3-c3cccc(N4C[C@@H](O)[C@H](F)C4)c3)c2=O)CC1` [Compound I-974], the IC50 fell in the range of 1000 to 10000 nM.

For `C=CC(=O)N1CC[C@]1(C)C(=O)N1CCC(O)(Cn2cnc3c(cnn3-c3ccc(F)cc3)c2=O)CC1` [Compound I-580], the IC50 lay in the range of 200 to 1000 nM.

Turning to `O=C(c1ccc(Oc2ccccc2)cc1)N1CCC(O)(Cn2cnc3c(cnn3-c3ccc(F)cc3)c2=O)CC1` [Compound I-66], the IC50 lay in the range of 200 to 1000 nM.

In the case of `NC(=O)COc1ccc(-n2ncc3c(=O)n(CC4(O)CCN(C(=O)c5ccc(F)cc5)CC4)cnc32)cc1` [Compound I-1307], the IC50 lay in the range of 1000 to 10000 nM.

On to `Cn1ncc2c(=O)n(CC3(O)CCN(C(=O)c4ccc(S(=O)(=O)Nc5ccccc5)cc4)CC3)cnc21` [Compound I-106], for which the IC50 lay within 1000 to 10000 nM.

In the case of `O=C(c1ccccc1)N1CCC(O)(Cn2cnc3c(cnn3-c3ccc(F)cc3)c2=O)CC1` [Compound I-266], the IC50 fell in the range of 1000 to 10000 nM.

For the compound `CC(=O)N1CCC(O)(Cn2cnc3c(cnn3-c3ccccc3)c2=O)CC1` [Compound I-154], the IC50 was in the range of 1000 to 10000 nM.

With `C[C@H](CC(=O)N1CCC(O)(Cn2cnc3c(cnn3-c3ccc(F)cc3)c2=O)CC1)N1CC2CCCC2C1` (some centres unmarked) [Compound I-525], the IC50 is above 10000 nM.

Take `O=C(C1CC1)N1CCC(O)(Cn2cnc3c(cnn3-c3ccc(C(F)(F)F)cc3)c2=O)CC1` [Compound I-28]: the IC50 fell in the range of 1000 to 10000 nM.

Take `CS(=O)(=O)Nc1ccc(-n2ncc3c(=O)n(CC4(O)CCN(C(=O)C5CC5)CC4)cnc32)cc1` [Compound I-1431]: the IC50 lay within 1000 to 10000 nM.

On to `C[C@@H](CC(=O)N1CCC(O)(Cn2cnc3c(cnn3-c3ccccc3)c2=O)CC1)n1cccc1` [Compound I-178], for which the IC50 fell in the range of 1000 to 10000 nM.

Take `CC1(O)CCN(c2cc(-n3ncc4c(=O)n(CC5(O)CCN(C(=O)C6CC6)CC5)cnc43)ccc2F)C1` (centres unmarked) [Compound I-636]: the IC50 was in the range of 200 to 1000 nM.

Consider `O=C(Nc1ccc(F)cc1)c1ccc(-n2ncc3c(=O)n(CC4(O)CCN(C(=O)C5CC5)CC4)cnc32)cc1` [Compound I-1492], for which the IC50 is 1000 to 10000 nM.

`Cc1ccc(C(=O)N2CCC(O)(Cn3cnc4c(cnn4-c4ccccc4)c3=O)CC2)cc1C` [Compound I-200]: the IC50 lay in the range of 1000 to 10000 nM.

`Cn1ncc2c(=O)n(CC3(O)CCN(C(=O)c4ccc(Nc5ccccc5)cc4)CC3)cnc21` [Compound I-13]: the IC50 lay within 1000 to 10000 nM.

In the case of `Cn1ncc2c(=O)n(CC3(O)CCN(C(=O)C[C@H](c4ccccc4)C(F)(F)F)CC3)cnc21` [Compound I-143], the IC50 fell in the range of 1000 to 10000 nM.

Regarding `Cn1ncc2c(=O)n(CC3(O)CCN(C(=O)c4ccc(-c5ccccc5CC#N)cc4)CC3)cnc21` [Compound I-83], the IC50 lay in the range of 1000 to 10000 nM.

On to `O=C(c1ccc(Oc2ncccn2)cc1)N1CCC(O)(Cn2cnc3c(cnn3-c3ccc(Cl)cc3)c2=O)CC1` [Compound I-1528], for which the IC50 lay within 1000 to 10000 nM.

`CC(C)CN(C)Cc1cccc(-n2ncc3c(=O)n(CC4(O)CCN(C(=O)C5CC5)CC4)cnc32)c1` [Compound I-452]: the IC50 is 1000 to 10000 nM.

Take `CC(C)OCCNc1ccc(-n2ncc3c(=O)n(CC4(O)CCN(C(=O)C5CC5)CC4)cnc32)cc1` [Compound I-1149]: the IC50 lay within 1000 to 10000 nM.

For the compound `C[C@H](CC(=O)N1CCC(O)(Cn2cnc3c(cnn3-c3ccc(-c4ccc(F)cc4)cc3)c2=O)CC1)n1cccn1` [Compound I-653], the IC50 lay within 200 to 1000 nM.

With `O=C(c1cnc(C2CC2)o1)N1CCC(O)(Cn2cnc3c(cnn3-c3ccc(F)cc3)c2=O)CC1` [Compound I-314], the IC50 lay within 200 to 1000 nM.

In the case of `O=C(c1ccc(OC(F)F)cc1)N1CCC(O)(Cn2cnc3c(cnn3-c3ccc(F)c(CO)c3)c2=O)CC1` [Compound I-641], the IC50 fell in the range of 1000 to 10000 nM.

Take `O=C(c1ccc(OC2CC2)cc1)N1CCC(O)(Cn2cnc3c(cnn3-c3ccc(F)cc3)c2=O)CC1` [Compound I-283]: the IC50 was 1000 to 10000 nM.

Take `CC1(C(=O)N2CCC(O)(Cn3cnc4c(cnn4-c4ccc(OC5CC(F)(F)C5)cc4)c3=O)CC2)CC1` [Compound I-1801]: the IC50 was below 200 nM.

Turning to `O=C(c1ccc(OC(F)F)cc1)N1CCC(O)(Cn2cnc3c(cnn3-c3ccc(F)cc3)c2=O)CC1` [Compound I-306], the IC50 lay within 1000 to 10000 nM.

As for `O=C(c1ccc(NC2CC2)cc1)N1CCC(O)(Cn2cnc3c(cnn3-c3ccccc3)c2=O)CC1` [Compound I-23, 5-((1-(4-(Cyclopropylamino)benzoyl)-4-hydroxypiperidin-4-yl)methyl)-1-phenyl-1,5-dihydro-4H-pyrazolo[3,4-d]pyrimidin-4-one], the IC50 lay in the range of 200 to 1000 nM.
